From PMC6375636, “Monotherapy with a low-dose lipopeptide HIV fusion inhibitor maintains long-term viral suppression in rhesus macaques” (PLoS Pathogens, 2019)
Peptide text beside a SMILES is read from it. * marks the point of attachment. Stearoyl = CCCCCCCCCCCCCCCCCC(=O)*; Palmitoyl = CCCCCCCCCCCCCCCC(=O)*

Assays:
[1] = test system: HIV-1 pseudovirus, primary Env CAP45.2.00.G3; format: cell-based; settings: Env CAP45.2.00.G3, subtype C; mean ± SD of 3 assays in triplicate
In short: (§1)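 Luciferase in TZM-bl cells was the read-out. Cells (10^4/well) received virus–inhibitor mixtures (100 TCID50, 3-fold serial dilutions, 1 h room-temperature preincubation) and were cultured 48 h at 37°C. Pseudovirus came from HEK293T cotransfection with Env plasmid plus pSG3Δenv; replication-competent clones were transfected alone.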

[2] = test system: HIV-1 pseudovirus, primary Env JRFL; format: cell-based; settings: subtype B, mean ± SD of 3 assays in triplicate
In short: as §1

[3] = test system: HIV-1 pseudovirus, primary Env CH070.1; format: cell-based; settings: Env CH070.1, subtype B/C; mean ± SD of 3 assays in triplicate
In short: as §1

[4] = test system: HIV-1 pseudovirus, primary Env B01; format: cell-based; settings: Env B01, subtype B'; mean ± SD of 3 assays in triplicate
In short: as §1

[5] = test system: HIV-1 pseudovirus, primary Env 92RW020; format: cell-based; settings: Env 92RW020, subtype A; mean ± SD of 3 assays in triplicate
In short: as §1

[6] = test system: HIV-1 pseudovirus, primary Env X2278_C2_B6; format: cell-based; settings: Env X2278_C2_B6, subtype B; mean ± SD of 3 assays in triplicate
In short: as §1

[7] = test system: HIV-1 pseudovirus, primary Env SC422661.8; format: cell-based; settings: Env SC422661.8, subtype B; mean ± SD of 3 assays in triplicate
In short: as §1

[8] = test system: HIV-1 pseudovirus, primary Env X1632-S2-B10; format: cell-based; settings: Env X1632-S2-B10, subtype G; mean ± SD of 3 assays in triplicate
In short: as §1

[9] = test system: HIV-1 pseudovirus, primary Env CE703010217_B6; format: cell-based; settings: Env CE703010217_B6, subtype C; mean ± SD of 3 assays in triplicate
In short: as §1

NL4-3WT pseudovirus = format: cell-based, HIV-1; settings: T-20 resistant, mean ± SD of 3 assays in triplicate, value in parentheses behind the bound
Description: (§2) The inhibitory activities of inhibitors against HIV-1 pseudoviruses and replication-competent isolates were measured as described previously. Briefly, HIV-1 pseudoviruses were generated via the cotransfection of HEK293T cells with an Env-expressing plasmid and a backbone plasmid that encodes Env-defective, luciferase-expressing HIV-1 genome (pSG3Δenv). Viral stocks of replication-competent HIV-1 isolates were generated by transfecting viral molecular clones into HEK293T cells. […] Inhibitors were prepared in 3-fold dilutions, mixed with 100 TCID50 of a virus, and then incubated for 1 h at room temperature. […] Luciferase activity was measured as described above.

[10] = test system: NL4-3V38A/N42T pseudovirus; format: cell-based, HIV-1; settings: T-20 resistant, mean ± SD of 3 assays in triplicate
Description: as §2

[11] = biological target: T1, gp41 NHR-derived target mimic peptide N39 (Human immunodeficiency virus type 1 group M subtype B, UniProt P04578); experiment: CD spectroscopy of lipopeptides in complex with target mimic peptide N39; format: binding, HIV-1; design: [θ]222: unit not given here; settings: complex with N39, each peptide 10 μM in PBS; representative of 2 assays
T1 construct: the gp41 NHR-derived target mimic peptide N39
T1 sequence (P04578 528-566): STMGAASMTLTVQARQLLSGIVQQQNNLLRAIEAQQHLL
Description: Spectra were corrected by subtracting a solvent blank.

Molecule | IC50 [1] [pM] | IC50 [2] [nM] | IC50 [3] [nM] | IC50 [4] [nM] | IC50 [5] [nM] | IC50 [6] [pM] | IC50 [7] [nM] | IC50 [8] [nM] | IC50 [9] [nM] | IC50 (NL4-3WT pseudovirus) [nM] | IC50 [10] [µM] | Helix content (%) [11] [%] | [θ]222 [11]
enfuvirtide [Lipopeptide T-20, reference compound] | 13600 ± 2040 | 9.62 ± 0.502 | 165 ± 28.3 | 84.4 ± 3.69 | 3.24 ± 0.232 | 5660 ± 74.4 | 16.1 ± 2.24 | 15.6 ± 2.01 | 41.8 ± 2.22 | 166 ± 19 | 5.95 ± 0.7 | – | –
CCCCCCCCCCCCCCCC(=O)NCCCC[C@H](NC(=O)[C@H](CCC(=O)O)NC(=O)[C@H](CC(C)C)NC(=O)[C@H](CCCCN)NC(=O)[C@H](CCCCN)NC(=O)[C@H](CC(C)C)NC(=O)[C@H](CCC(=O)O)NC(=O)[C@H](CCC(=O)O)NC(=O)[C@H](CCC(=O)O)NC(=O)[C@H](CC(N)=O)NC(=O)[C@H](CCCCN)NC(=O)[C@H](CCCCN)NC(=O)[C@H](CCC(N)=O)NC(=O)[C@H](CCC(N)=O)NC(=O)[C@H](CCC(=O)O)NC(=O)[C@H](CCC(=O)O)NC(=O)[C@H](C)NC(=O)[C@H](CCCCN)NC(=O)[C@H](CCCCN)NC(=O)[C@H](CC(C)C)NC(=O)[C@H](CC(C)C)NC(=O)[C@H](CCC(=O)O)NC(=O)[C@H](CCC(=O)O)NC(=O)[C@@H](NC(=O)[C@H](CCCCN)NC(=O)[C@H](CCC(N)=O)NC(=O)[C@H](CCC(=O)O)NC(=O)[C@H](Cc1c[nH]c2ccccc12)NC(C)=O)[C@@H](C)CC)C(N)=O [LP-52, reference compound] (Ac-WEQKIEELLKKAEEQQKKNEEELKKLEK(Palmitoyl)-NH2) | 7.58 ± 0.64 | 0.0467 ± 0.00696 | 0.0276 ± 0.00333 | 0.00706 ± 0.00116 | 0.0393 ± 0.00151 | 1.17 ± 0.22 | 0.00939 ± 0.00176 | 0.0245 ± 0.00239 | 0.0117 ± 0.00137 | – | – | 64 | -21060
CCCCCCCCCCCCCCCCCC(=O)NCCCC[C@H](NC(=O)[C@H](CCC(=O)O)NC(=O)[C@H](CC(C)C)NC(=O)[C@H](CCCCN)NC(=O)[C@H](CCCCN)NC(=O)[C@H](CC(C)C)NC(=O)[C@H](CCC(=O)O)NC(=O)[C@H](CCC(=O)O)NC(=O)[C@H](CCC(=O)O)NC(=O)[C@H](CC(N)=O)NC(=O)[C@H](CCCCN)NC(=O)[C@H](CCCCN)NC(=O)[C@H](CCC(N)=O)NC(=O)[C@H](CCC(N)=O)NC(=O)[C@H](CCC(=O)O)NC(=O)[C@H](CCC(=O)O)NC(=O)[C@H](C)NC(=O)[C@H](CCCCN)NC(=O)[C@H](CCCCN)NC(=O)[C@H](CC(C)C)NC(=O)[C@H](CC(C)C)NC(=O)[C@H](CCC(=O)O)NC(=O)[C@H](CCC(=O)O)NC(=O)[C@@H](NC(C)=O)[C@@H](C)CC)C(N)=O [LP-90] (Ac-IEELLKKAEEQQKKNEEELKKLEK(Stearoyl)-NH2) | 2.14 ± 0.13 | 0.0122 ± 0.00083 | 0.0317 ± 0.00204 | 0.018 ± 0.00158 | 0.0151 ± 0.00062 | 1.04 ± 0.22 | 0.0385 ± 0.00705 | 0.0284 ± 0.00411 | 0.0112 ± 0.00083 | 0.03 | 0.0492 ± 0.00219 | 42 | -13989
